{
  "source": "paper PMC2410173",
  "about": "“Pharmacokinetics and efficacy of 2-methoxyoestradiol and 2-methoxyoestradiol-bis-sulphamate in vivo in rodents” (British Journal of Cancer, 2004)",
  "key": {"[1]": {"assay": "Body masses of xenograft-bearing mice as an indicator of toxicity", "type": "in vivo, mouse", "settings": "nude mice, 20 mg kg^−1 oral daily for 28 days", "experimental": "(§1) To compare the anticancer effects of 2-MeOE2 and 2-MeOE2bisMATE, xenografts derived from MDA-MB-435 (ER−) human melanoma cells were transplanted into female nude mice with eight mice per group. These studies were carried out by Anti-Cancer Inc. (San Diego, CA, USA). Treatment was initiated when tumour volumes reached 100–200 mm^3. Drugs were dissolved in a minimum volume of THF, diluted with propylene glycol and administered at 20 mg kg^−1, oral, daily for 28 days. The length (l) and width (w) of tumours was measured at weekly intervals, from which the tumour volumes were calculated using the formula (l × w^2/2). Monitoring of tumour volumes continued for a further 28-day period after the end of drug administration. The body masses of control and treated animals were also measured at weekly intervals as an indicator of any toxicity that might be associated with the use of these drugs."}, "[2]": {"assay": "Pharmacokinetics and metabolism in rat plasma after a single intravenous or oral dose (HPLC)", "type": "in vivo", "experimental": "Female Wistar (155–165 g) rats were purchased from Charles River UK Ltd (Margate, Kent, UK) and housed in a dedicated animal facility. Rats received RM1 rodent maintenance diet (SDS, Kent, UK), water ad libitum, and were maintained in positive pressure isolators under a 12 h light–dark cycle. These experiments were carried out under conditions that complied with institutional requirements. Rats received 2-MeOE2 or 2-MeOE2bisMATE (10 mg kg^−1, oral or intravenous), with control animals receiving vehicle only (propylene glycol: THF, 9 : 1 v v^−1). There were two reasons for selecting 10 mg kg^−1 for both oral and intravenous dosing. […] Rats were subjected to terminal anaesthesia (Halothane) and blood removed by cardiac puncture at 5, 15 and 30 min and 1, 3, 8 and 24 h after intravenous administration, and 15 and 30 min and 1, 3, 8, 24 and 48h following oral administration of 2-MeOE2 or 2-MeOE2bisMATE. Plasma was prepared from whole blood by centrifugation (2800 g, 4°C, 15 min). Plasma (0.5 ml) was extracted with diethyl ether (4 ml) and frozen in a methanol : solid carbon dioxide mixture. 17α-Epitestosterone (28 μg ml^−1) was used as an internal standard after purification by HPLC. The organic phase was decanted to a fresh tube and evaporated to dryness under a stream of air at room temperature. The extraction efficiencies for 2-MeOE2 and 2-MeOE2bisMATE from plasma were 71±5 and 75±4% (n=6), respectively. The residues were stored at −20°C until analysis by HPLC.\n2-MeOE2bisMATE was separated from its putative metabolites, 2-MeOE2, 2-MeOE2-3MATE and 2-MeOE2-17MATE, using a modified version of a reversed-phase HPLC method described previously ([Hildago Aragones et al, 1996]). An Agilent 1100 (Cheshire, UK) autosampler, photodiode array detector and solvent delivery system were used. The agents were separated from endogenous plasma components by an isocratic mobile phase consisting of 58% methanol in 0.02 M ammonium sulphate. Sodium azide (1 mM) was added to the mobile phase in order to decrease microbial growth. Extracted samples were reconstituted in mobile phase and aliquots of 100 μl were injected on to a C3-phenyl column (250 × 5 mm, 5 μm) purchased from Phenomenex (Cheshire, UK). 2-Methoxyoestradiol-bis-sulphamate, 2-MeOE2 and their metabolites were analysed with a photodiode array detector with detection at 285 nm. The method was validated by spiking plasma with 2-MeOE2bisMATE (960 ng ml^−1). The inter-day and intra-day coefficients of variation were 8.2% (n=6) and 3.8% (n=6), respectively. Quantification was achieved by spiking plasma with 2-MeOE2bisMATE and the internal standard 17α-epitestosterone, extraction with diethyl ether and subsequent analysis by HPLC. […] The limits of detection (LODs) and quantification of 2-MeOE2bisMATE in plasma were 11 and 40 ng ml^−1, respectively.\nPharmacokinetic parameters were calculated using WinNonlin software (Pharsight Corporation, Mountview, CA, USA). The area under the curve (AUC) was calculated using the linear trapezoidal method, with extrapolation of the terminal phase to infinity. Other parameters calculated were: distribution and elimination rate constants (α and β); total body clearance (Cl)=dose/AUC; volume of distribution (Vd)=Cl/β; distribution half-life (t1/2α)=0.693/α; elimination half-life (t1/2β)=0.693/β; bioavailability (% F=(AUCoral/AUCi.v) × 100)."}, "[3]": {"tested_on": "MDA-MB-435 (ER−) human melanoma cells xenografts", "assay": "In vivo inhibition of tumour growth, MDA-MB-435 xenografts in nude mice", "parameters": "species or system mouse", "settings": "20 mg kg^−1 oral daily for 28 days; for effect on tumour growth / tumour volumes versus control: treatment and post-dosing periods", "experimental": "as §1\nStudent's t-test was used to assess the significance of differences in tumour volumes between control and treated animals."}, "steroid sulphatase [4]": {"biological_target": "T1, steroid sulphatase (Rattus norvegicus, UniProt P15589)", "T1 construct": "Livers were obtained from animals administered with 2-MeOE2 or 2-MeOE2bisMATE either orally or intravenously, to assess their effects on steroid sulphatase activity; from tissue; host or cells: liver of female Wistar rats", "T1 sequence (P15589 20-577)": "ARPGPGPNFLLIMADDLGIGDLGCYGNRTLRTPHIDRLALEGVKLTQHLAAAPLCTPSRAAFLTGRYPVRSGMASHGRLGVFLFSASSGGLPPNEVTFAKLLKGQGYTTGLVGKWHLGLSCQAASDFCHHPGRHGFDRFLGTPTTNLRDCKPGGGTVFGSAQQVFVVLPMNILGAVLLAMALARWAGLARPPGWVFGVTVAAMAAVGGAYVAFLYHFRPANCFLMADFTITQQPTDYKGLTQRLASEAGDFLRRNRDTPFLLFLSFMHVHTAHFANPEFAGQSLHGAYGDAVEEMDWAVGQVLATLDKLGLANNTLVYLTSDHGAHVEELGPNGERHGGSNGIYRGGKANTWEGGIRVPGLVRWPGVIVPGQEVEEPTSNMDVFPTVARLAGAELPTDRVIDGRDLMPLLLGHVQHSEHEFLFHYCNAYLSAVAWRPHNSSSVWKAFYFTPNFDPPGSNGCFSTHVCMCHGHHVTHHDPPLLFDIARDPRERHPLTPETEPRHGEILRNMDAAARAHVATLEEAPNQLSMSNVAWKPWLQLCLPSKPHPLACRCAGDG", "assay": "Liver oestrone sulphatase activity after in vivo dosing", "experimental": "Livers were obtained from animals administered with 2-MeOE2 or 2-MeOE2bisMATE either orally or intravenously, to assess their effects on steroid sulphatase activity. Steroid sulphatase activity was measured as described previously ([Purohit et al, 1995])."}, "[5]": {"tested_on": "human umbilical vein endothelial cell (HUVEC)", "parameters": "method as in Newman et al, 2004", "settings": "in vitro; ref Newman et al, 2004; cited from earlier work"}, "steroid sulphatase [6]": {"biological_target": "T1, steroid sulphatase", "parameters": "method as in Purohit et al, 1995", "settings": "single dose 10 mg kg^−1 oral or intravenous; ref Purohit et al, 1995; cited from earlier work"}, "[7]": {"settings": "in vivo; cited from earlier work"}, "[8]": {"settings": "female, Wistar, in vivo, iv, 10 mg/kg"}, "[9]": {"settings": "female, Wistar, in vivo, po, 10 mg/kg"}},
  "note": "“Also recorded” adds a separate entry of the source. Like-named read-outs stand apart in the source and are kept apart here.",
  "data": [
    {"smiles": "COc1cc2c(cc1O)CC[C@@H]1[C@@H]2CC[C@]2(C)[C@@H](O)CC[C@@H]12", "note": "[2-MeOE2, 2-Methoxyoestradiol]", "values": [
      {"measurement": "body weights", "setting": "[1]", "result": "No decreases"},
      {"measurement": "% F (bioavailability)", "setting": "[2]; 10 mg kg^−1, (AUCoral/AUCi.v) × 100", "result": "very low"},
      {"measurement": "plasma concentration", "setting": "[2]; 1 h after 10 mg kg^−1 intravenous bolus, LOD 11 ng ml^−1", "result": "below the LOD"},
      {"measurement": "level in plasma as putative metabolite of 2-MeOE2bisMATE", "setting": "[2]; after oral or intravenous 2-MeOE2bisMATE 10 mg kg^−1", "result": "not above the LOD"},
      {"measurement": "concentration at 1 h", "setting": "[2]; female, Wistar, plasma, iv, 10 mg kg^−1, rat, 1 h after 10 mg kg^−1 intravenous bolus, LOD 11 ng ml^−1", "result": "< 11", "unit": "ng/mL"},
      {"measurement": "half-life", "setting": "[2]; female, Wistar, plasma, iv, 10 mg kg^−1, rat, after intravenous administration, read-out: half-life in plasma", "result": "~0.233", "unit": "h"},
      {"measurement": "effect on tumour growth / tumour volumes versus control", "setting": "[3]", "result": "did not inhibit tumour growth; also recorded: no significant effect"},
      {"measurement": "inhibition of hepatic sulphatase activity compared with control animals", "setting": "steroid sulphatase [4]; rat liver, single oral or intravenous dose 10 mg kg^−1", "result": "did not affect"}
    ]},
    {"smiles": "COc1cc2c(cc1OS(N)(=O)=O)CCC1C2CC[C@]2(C)C(OS(N)(=O)=O)CCC12", "note": "(stereo partly drawn) [2-MeOE2bisMATE, 2-methoxyoestradiol-bis-sulphamate]", "values": [
      {"measurement": "potency relative to 2-MeOE2 in HUVEC growth inhibition", "setting": "[5]", "result": 60, "unit": "fold"},
      {"measurement": "plasma concentrations detected", "setting": "[2]; female, Wistar, in vivo", "result": "up to 5 μM"},
      {"measurement": "bioavailability", "setting": "[2]; female, Wistar, in vivo, 10 mg/kg, % F (bioavailability)", "result": 85, "unit": "%"},
      {"measurement": "AUC", "setting": "[2]; [8]", "result": "514 ± 154", "unit": "µg·h/mL"},
      {"measurement": "Cmax", "setting": "[2]; [8]", "result": "6550 ± 920", "unit": "ng/mL"},
      {"measurement": "Vd", "setting": "[2]; [8]", "result": "0.28 ± 0.09", "unit": "L"},
      {"measurement": "clearance", "setting": "[2]; [8]", "result": 0.833, "unit": "mL/min"},
      {"measurement": "half-life", "setting": "[2]; female, Wistar, in vivo, iv, 10 mg/kg, t1/2α (distribution half-life)", "result": "0.22 ± 0.1", "unit": "h"},
      {"measurement": "half-life", "setting": "[2]; female, Wistar, in vivo, iv, 10 mg/kg, t1/2β (terminal half-life)", "result": "8.5 ± 1.16", "unit": "h"},
      {"measurement": "time for which compound was detectable in plasma", "setting": "[2]; female, Wistar, in vivo, po", "result": "at least 24 h"},
      {"measurement": "AUC", "setting": "[2]; [9]", "result": "389 ± 28.8", "unit": "µg·h/mL"},
      {"measurement": "Cl", "setting": "[2]; [9]", "result": "0.036 ± 0.001", "unit": "L/h"},
      {"measurement": "Cmax", "setting": "[2]; [9]", "result": "3900 ± 250", "unit": "ng/mL"},
      {"measurement": "Vd", "setting": "[2]; [9]", "result": "0.35 ± 0.02", "unit": "L"},
      {"measurement": "half-life", "setting": "[2]; female, Wistar, in vivo, po, 10 mg/kg, t1/2β (terminal plasma half-life)", "result": "6.51 ± 1.09", "unit": "h"},
      {"measurement": "plasma concentration", "setting": "[2]; female, Wistar, in vivo, po, 24 h", "result": 450, "unit": "ng/mL"},
      {"measurement": "effect on tumour growth / tumour volumes versus control", "setting": "[3]", "result": "almost completely inhibited tumour growth; also recorded: significantly smaller"},
      {"measurement": "mean tumour volume as % of tumour volume in control animals", "setting": "[3]; at 4 weeks, end of dosing", "result": 14, "unit": "%"},
      {"measurement": "difference in tumour volumes versus control group", "setting": "[3]; maintained for a further 4 weeks after cessation", "result": 86, "unit": "%"},
      {"measurement": "time for which inhibition of sulphatase activity was maintained", "setting": "steroid sulphatase [4]; rat liver, after single dose", "result": 48, "unit": "h"},
      {"measurement": "inhibition of steroid sulphatase activity", "setting": "steroid sulphatase [4]; rat liver, within 5 min of intravenous dosing", "result": "> 99", "unit": "%"},
      {"measurement": "inhibition of steroid sulphatase activity", "setting": "steroid sulphatase [4]; rat liver, within 15 min of oral dosing", "result": "> 99", "unit": "%"},
      {"measurement": "inhibition at 10 mg/kg", "setting": "steroid sulphatase [4]; rat, read-out: inhibition of hepatic sulphatase activity compared with control animals", "result": "99.5 ± 0.5", "unit": "%"}
    ]},
    {"smiles": "C[C@]12CC[C@@H]3c4ccc(OS(N)(=O)=O)cc4CC[C@H]3[C@@H]1CCC2=O", "note": "[EMATE, oestrone-3-O-sulphamate]", "values": [
      {"measurement": "inhibition of rat liver sulphatase", "setting": "steroid sulphatase [6]", "result": "at least 99%"},
      {"measurement": "half-life in plasma", "setting": "[7]", "result": 4.5, "unit": "h"}
    ]}
  ]
}
